Where two headings read alike, the source gives them in different places.
Tests used:
Stability in solution = format: physicochemical
[1] = Determination of the maximum tolerated dose (MTD); details: mouse, in vivo, 3 female Balb/c mice per dose, within 7 days
Experimental: Example 11: Determination of the maximum tolerated dose (MTD) of N-[0-(tetrahydro-pyran-4-yl) -D-lactoyl]- staurosporin
3 female Balb/c mice per dose are treated i.p. or p.o. with N-[O]-(tetrahydropyran-4-yl)-D-lactoyl]-staurosporin in dimethyl sulfoxide […]/sodium chloride solution (see Example 10 for formulation). The dose is increased until animals succumb within 7 days.

[2] = tested on: human bladder tumours T24; experiment: Anti-tumour activity in vivo, s.c. transplanted human bladder tumours T24 in hairless mice; set-up: species or system human tumour in female Balb/c hairless mice; details: 15 days
Experimental: Female Balb/c hairless mice with s.c. transplanted human bladder tumours T24 are used to determine the anti-tumour activity. With the animals under peroral forene narcosis, approximately 25 mg of a solid tumour are placed under the skin on "the animals' left flank on day 0 and the small incised wound is closed by means of suture clips. On day 6 after the transplantation, the mice are divided at random into groups of 6 animals and treatment commences. The treatment is carried out for 15 days with peroral or intraperitoneal administration once daily of a compound of formula I in dimethyl sulfoxide/Tween 80/sodium chloride solution in the various doses. The tumours are measured twice a week with a slide gauge and the volume of the tumours is calculated. In this test, the peroral or intraperitoneal administration of 3 mg/kg daily of a compound of formula I brings about a reduction in the average tumour volume to from 10 to 15% of the tumour volume in the untreated control animals.
Example 10: Anti-tumour activity of N-[0-(tetrahydropyran-4-yl)-D-lactoyl]-staurosporin in vivo:
The substance is formulated as follows: 12.5 mg of active ingredient are dissolved in 0.25 ml of dimethyl sulfoxide and mixed with 50 μof Tween 80.4.7 ml of a 0.9% sodium chloride solution are then added and the whole is mixed thoroughly.
Female Balb/c hairless mice with s.c. transplanted human bladder tumours T24 are used to determine the anti-tumour activity. With the animals under peroral forene narcosis, approximately 25 mg of a solid tumour are placed under the skin on the animals' left flank on day 0 and the small incised wound is closed by means of suture clips. On day 6 after the transplantation, the mice are divided at random into groups of 6 animals and treatment commences. The treatment is carried out for 15 days with the administration once daily of the various doses. The tumours are measured twice a week with a slide gauge and the volume of the tumours is calculated. The results are compiled in the following Table in which "dose" is the daily dose, "admin." is the mode of administration, "exper." is experiment and "T/C %" is the percentage quotient of the values in the treated mice and the untreated control mice.

stability in solution (Stability in solution)	SMILES	MTD at 168 h ([1]; ip, read-out: MTD (i.p.))	MTD at 168 h ([1]; po, read-out: MTD (p.o.))	average tumour volume [T/C %] ([2]; 0.19 mg/kg daily i.p., Exper. 2)	average tumour volume [T/C %] ([2]; 0.38 mg/kg daily i.p., Exper. 2)	average tumour volume [T/C %] ([2]; 0.75 mg/kg daily i.p., Exper. 2)	average tumour volume [T/C %] ([2]; 0.78 mg/kg daily p.o., Exper. 2)	average tumour volume [T/C %] ([2]; 1.50 mg/kg daily i.p., Exper. 1)	average tumour volume [T/C %] ([2]; 1.50 mg/kg daily i.p., Exper. 2)	average tumour volume [T/C %] ([2]; 1.56 mg/kg daily p.o., Exper. 2)	average tumour volume [T/C %] ([2]; 3.00 mg/kg daily i.p., Exper. 1)	average tumour volume [T/C %] ([2]; 3.00 mg/kg daily i.p., Exper. 2)	average tumour volume [T/C %] ([2]; 3.13 mg/kg daily p.o., Exper. 1)	average tumour volume [T/C %] ([2]; 3.13 mg/kg daily p.o., Exper. 2)	average tumour volume [T/C %] ([2]; 6.25 mg/kg daily p.o., Exper. 1)	average tumour volume [T/C %] ([2]; 6.25 mg/kg daily p.o., Exper. 2)
unstable in solution	CO[C@@H]1[C@H](N(C)C(=O)COC2CCOCC2)C[C@H]2O[C@]1(C)n1c3ccccc3c3c4c(c5c6ccccc6n2c5c31)C(=O)NC4O (stereo partly shown) [Example 7, N-[2-(tetrahydropyran-4-yl-oxy)-acetyl]-7-hydroxy-staurospo]	–	–	–	–	–	–	–	–	–	–	–	–	–	–	–
–	CO[C@@H]1[C@H](N(C)C(=O)[C@@H](C)OC2CCOCC2)C[C@H]2O[C@]1(C)n1c3ccccc3c3c4c(c5c6ccccc6n2c5c31)C(=O)NC4 [N-[O-(tetrahydropyran-4-yl)-D-lactoyl]-staurosporin]	31.2 mg/kg	62.5 mg/kg	74%	62%	32%	58%	14%	19%	31%	9%	11%	17%	14%	15%	12%

Reference: patent publication US5455241A, “Polycyclic compounds and processes for the preparation thereof” (Ciba-Geigy Corporation, priority 1993, dated 1995)
